According to patent US9458102B2 (priority 2011, dated 2016):
Read-outs that look alike come from different tables or passages of the source.

Tests used:
[1] = target: heteromeric rod CNG channels consisting of CNGA1 and CNGB1 subunits (Bos taurus, UniProt Q00194+Q28181); assay: biochemical; assay type: cell-based; conditions: for Kd: 2 mM cGMP
Experimental: Currents were elicited by a voltage step protocol from 0 to −50 to +50 mV (See FIG. 1) in the presence of 2 mM cGMP or 2 mM cGMP and compound (5 μM). Time scale is shown in the lower left-hand corner of the panel and FIG. 1, and the zero current level is indicated by the dotted line.
The solid line indicates the fit of the equation for block at a single binding site.
Time scale is shown in the lower left-hand corner of the panel and FIG. 1, and the zero current level is indicated by the dotted line. […] Solid line indicates the fit of the equation for block at a single binding site.
The effectiveness of retinal rod CNG channel current block by the disclosed compounds was tested in Xenopus oocyte preparations. Excised, inside-out patches pulled from oocytes expressed heteromeric rod CNG channels consisting of CNGA1 and CNGB1 subunits. […] CNG channel currents were elicited by a voltage step protocol to −50 and +50 mV (FIG. 1). The apparent KD value at each membrane potential was estimated first by determining I+B and I−B at steady state, where I+B is the current in the presence of blocker and I−B is current in the absence of blocker, for different blocker concentrations ([B]).
Ovaries were surgically removed from adult Xenopus laevis females (Xenopus Express; Brooksville, Fla.) anesthetized with ice-cold 0.1% tricaine and 0.1% NaHCO3 solution. Oocytes were chemically released from ovarian follicles in Ca^2+-free Barth's solution (88 mM NaCl, 1 mM KCl, 2.4 mM NaHCO3, 0.82 mM MgSO4, 7.5 mM Tris, 2.5 mM sodium pyruvate, 100 U/mL penicillin, and 100 μg/mL streptomycin, pH 7.4) containing 0.1 U/mL Liberase Blendzymes (Roche, Indianapolis, Ind.). Stages IV and V oocytes were visually sorted and stored in ND-96 (96 mM NaCl, 2 mM KCl, 1.8 mM CaCl2, 1 mM MgCl2, 5 mM HEPES, 2.5 mM sodium pyruvate, 100 U/mL penicillin, and 100 μg/mL streptomycin, pH 7.4) at 16° C. Oocytes were co-injected the following day with 33 ng of CNGA1 and 67 ng of CNGB1 cRNA […] synthesized from linearized pGEM-HE expression vectors containing the channel subunit cDNA sequence (Strassmaier T & Karpen J, J Med Chem 50, 4186-4194, (2007), incorporated by reference herein) using T7 mMESSAGE mMACHINE® (Ambion, Austin, Tex.). Injected oocytes were incubated at 18° C. the first day and 16° C. for the remaining days.
Recordings from inside-out excised patches were made 3-7 days after oocyte injection on an Axopatch 1D® amplifier (Axon Instruments, Foster City, Calif.). Briefly, oocyte vitelline membranes were removed in solution containing 200 mM K aspartate, 20 mM KCl, 1 mM MgCl2, 10 mM EGTA, 10 mM HEPES, pH 7.4. Oocytes were placed in a recording chamber in a solution containing 130 mM NaCl, 2 mM HEPES, 0.02 mM EDTA, 1 mM EGTA, pH 7.6, and borosilicate glass electrodes (1-3 MΩ) were filled with identical solution. Macroscopic currents were filtered at 1 kHz and sampled at 2 kHz using pCLAMP 8.0® software (Axon Instruments). Channels were either fully activated with 2 mM or partially activated with 50 and 100 μM cGMP. […] Glass syringes and Teflon tubing were used to minimize the binding of compounds to surfaces; concentrations passing through the perfusion system were verified by absorbance.

chymotrypsin = target: T1, chymotrypsin (Bos taurus, UniProt P00766); assay: In vitro hydrolysis by chymotrypsin; assay type: in vitro ADME
T1 construct: purchased Worthington Biochemical Co
Experimental: All enzymatic assays were performed with 50 μM compound in 0.1M phosphate buffer, pH 7.4, at 37° C. with stirring, unless otherwise noted. Butyrylcholinesterase stock solutions from human serum (Sigma, St. Louis, Mo.) were prepared at 100 U/mL in 0.1 M phosphate buffer, pH 7.4, and stored at −20° C. until use. Hydrolysis was monitored on an 8452A diode array spectrophotometer (Hewlett-Packard). Product peak wavelength absorption was immediately monitored upon addition of compound. Absorbances for complete hydrolysis were determined when there were no further detectable changes. […] All hydrolysis assays were performed in triplicate, and final rate constants are expressed as the mean±SD of the three individually determined rate constants. […] Activity of chymotrypsin (bovine, Worthington Biochemical Co., 190 μg/mL) was verified with 90 μM 4-nitrophenyl acetate in 0.1 M HEPES solution, pH 6.5, at 37° C. with stirring. Hydrolysis product was monitored at 404 nm for 10 min. Activity of proteinase K (from Engyodontium album, Sigma, 165 μg/mL) was verified with 16.5 mg/mL bovine serum albumin in 0.1 M phosphate buffer, pH 7.4, at 37° C. Samples were taken at time point increments up to 2 hours when the reaction reached completion. Samples were analyzed with 12% SDS-PAGE, stained with 0.1% Coomassie Blue.

[2] = Table 2 (butyl series), +50 mV, read-out: KD(+50)
[3] = Table 2 (butyl series), −50 mV, read-out: KD(−50)
[4] = octyl series table, +50 mV, read-out: KD(+50)
[5] = octyl series table, −50 mV, read-out: KD(−50)

heteromeric rod CNG channels consisting of CNGA1 and CNGB1 subunits, sequence (Q00194 whole entry): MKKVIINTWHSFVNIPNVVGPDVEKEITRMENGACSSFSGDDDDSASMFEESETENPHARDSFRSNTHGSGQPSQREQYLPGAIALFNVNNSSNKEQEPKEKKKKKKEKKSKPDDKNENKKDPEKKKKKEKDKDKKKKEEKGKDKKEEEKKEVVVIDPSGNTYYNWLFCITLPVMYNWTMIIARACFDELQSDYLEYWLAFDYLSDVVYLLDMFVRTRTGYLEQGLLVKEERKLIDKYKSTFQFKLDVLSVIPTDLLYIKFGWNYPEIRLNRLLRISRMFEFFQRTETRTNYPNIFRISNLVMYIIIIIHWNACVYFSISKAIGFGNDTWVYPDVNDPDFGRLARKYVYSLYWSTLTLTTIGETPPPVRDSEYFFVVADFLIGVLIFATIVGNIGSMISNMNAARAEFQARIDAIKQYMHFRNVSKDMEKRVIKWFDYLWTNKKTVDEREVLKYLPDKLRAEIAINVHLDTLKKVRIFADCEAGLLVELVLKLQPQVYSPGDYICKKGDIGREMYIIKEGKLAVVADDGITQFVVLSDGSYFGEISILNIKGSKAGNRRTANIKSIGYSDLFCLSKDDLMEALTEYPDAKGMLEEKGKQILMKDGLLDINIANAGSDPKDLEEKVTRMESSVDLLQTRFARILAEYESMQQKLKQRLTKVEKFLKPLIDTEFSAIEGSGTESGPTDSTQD
heteromeric rod CNG channels consisting of CNGA1 and CNGB1 subunits, sequence (Q28181 whole entry): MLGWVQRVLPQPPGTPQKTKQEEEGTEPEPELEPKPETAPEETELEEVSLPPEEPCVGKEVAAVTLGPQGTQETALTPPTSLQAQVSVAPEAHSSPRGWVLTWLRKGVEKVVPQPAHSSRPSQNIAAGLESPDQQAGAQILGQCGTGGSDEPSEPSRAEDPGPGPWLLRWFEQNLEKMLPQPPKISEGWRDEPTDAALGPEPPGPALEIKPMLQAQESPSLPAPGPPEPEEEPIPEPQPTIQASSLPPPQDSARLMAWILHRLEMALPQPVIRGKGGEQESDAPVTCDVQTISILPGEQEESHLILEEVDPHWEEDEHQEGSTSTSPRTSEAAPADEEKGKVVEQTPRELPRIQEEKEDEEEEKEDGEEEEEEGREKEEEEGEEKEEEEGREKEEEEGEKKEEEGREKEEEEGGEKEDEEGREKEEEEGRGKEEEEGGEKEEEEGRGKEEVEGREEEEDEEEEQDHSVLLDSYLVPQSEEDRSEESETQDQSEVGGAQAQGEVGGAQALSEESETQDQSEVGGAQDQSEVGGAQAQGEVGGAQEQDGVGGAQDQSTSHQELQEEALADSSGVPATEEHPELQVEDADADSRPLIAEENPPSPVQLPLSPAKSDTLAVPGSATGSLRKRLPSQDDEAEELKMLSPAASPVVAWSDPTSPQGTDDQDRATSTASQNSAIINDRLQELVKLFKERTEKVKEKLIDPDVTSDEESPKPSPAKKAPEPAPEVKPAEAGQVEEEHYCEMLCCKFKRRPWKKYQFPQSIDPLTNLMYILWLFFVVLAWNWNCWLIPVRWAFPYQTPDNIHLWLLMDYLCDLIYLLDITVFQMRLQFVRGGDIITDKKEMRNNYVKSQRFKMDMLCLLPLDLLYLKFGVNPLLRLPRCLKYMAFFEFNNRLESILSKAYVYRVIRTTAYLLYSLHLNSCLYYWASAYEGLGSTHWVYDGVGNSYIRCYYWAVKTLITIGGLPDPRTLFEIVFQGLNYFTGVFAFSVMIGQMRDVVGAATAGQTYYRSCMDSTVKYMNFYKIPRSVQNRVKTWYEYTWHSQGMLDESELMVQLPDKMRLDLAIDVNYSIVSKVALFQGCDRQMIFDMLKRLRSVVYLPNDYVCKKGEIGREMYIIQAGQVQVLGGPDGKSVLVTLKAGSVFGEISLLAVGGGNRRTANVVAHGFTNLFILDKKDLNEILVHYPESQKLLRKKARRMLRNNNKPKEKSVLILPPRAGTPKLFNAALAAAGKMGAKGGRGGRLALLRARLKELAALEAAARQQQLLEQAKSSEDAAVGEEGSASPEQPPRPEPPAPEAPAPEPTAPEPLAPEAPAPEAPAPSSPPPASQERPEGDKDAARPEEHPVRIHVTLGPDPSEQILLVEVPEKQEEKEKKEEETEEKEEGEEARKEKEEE

SMILES	Kd [1, 2]	Kd [1, 3]	Kd [1, 4]	Kd [1, 5]	further results
COc1ccc([C@H]2Sc3ccccc3N(CCN(C)C)C(=O)[C@H]2OC(C)=O)cc1 (relative stereo) [l-cis-diltiazem, reference compound]					block of 2 mM cGMP-induced currents [1]: 74.2±5.8%
CC(=O)Oc1ccc([N+](=O)[O-])cc1 [4-nitrophenyl acetate, reference compound]					hydrolysis products with chymotrypsin (chymotrypsin): detected
CCCCNc1ccc(C(=O)OCCN(C)C)cc1[N+](=O)[O-] [Compound 12a, 2-(dimethylamino)ethyl 4-(butylamino)-3-nitrobenzoate]	5500 ± 3200 nM	19600 ± 14400 nM			
CCCCNc1ccc(C(=O)OCCN(C)C)cc1OC [Compound 12b, 2-(dimethylamino)ethyl 4-(butylamino)-3-methoxybenzoate]	4300 ± 800 nM	18300 ± 4400 nM			
CCCCNc1ccc(C(=O)OCCN(C)C)cc1C [Compound 12c, 2-(dimethylamino)ethyl 4-(butylamino)-3-methylbenzoate]	7800 ± 3100 nM	28100 ± 13400 nM			
CCCCNc1ccc(C(=O)OCCN(C)C)cc1Cl [Compound 12d, 2-(dimethylamino)ethyl 4-(butylamino)-3-chlorobenzoate]	3000 ± 1000 nM	12800 ± 4100 nM			improvement of affinity / blocking potency compared to compound 1 (tetracaine) [1]: 1.6 fold
CCCCCCCCNc1ccc(C(=O)OCCN(C)C)cc1[N+](=O)[O-] [Compound 14a, 2-(dimethylamino)ethyl 4-(octylamino)-3-nitrobenzoate]			8000 ± 5800 nM	12600 ± 7300 nM	
CCCCCCCCNc1ccc(C(=O)OCCN(C)C)cc1OC [Compound 14b, 2-(dimethylamino)ethyl 4-(octylamino)-3-methoxybenzoate]			1250 ± 1230 nM	3000 ± 3400 nM	
CCCCCCCCNc1ccc(C(=O)OCCN(C)C)cc1C [Compound 14c, 2-(dimethylamino)ethyl 4-(octylamino)-3-methylbenzoate]			500 ± 420 nM	1410 ± 840 nM	
CCCCCCCCNc1ccc(C(=O)OCCN(C)C)cc1Cl [Compound 14d, 2-(dimethylamino)ethyl 4-(octylamino)-3-chlorobenzoate]			140 ± 40 nM	380 ± 160 nM	improvement of affinity / blocking potency compared to compound 5 [1]: approximately six-fold improvement
CCCCCCCCNc1ccc(C(=O)OCCN(C)C)cc1F [Compound 14e, 2-(dimethylamino)ethyl 4-(octylamino)-3-fluorobenzoate]			200 ± 100 nM	750 ± 860 nM	
CCCCCCCCNc1ccc(C(=O)OCCN(C)C)cc1Br [Compound 14f, 2-(dimethylamino)ethyl 4-(octylamino)-3-bromobenzoate]			140 ± 30 nM	240 ± 100 nM	
CCCCCCCCNc1ccc(C(=O)OCCN(C)C)c(Cl)c1 [Compound 14g, 2-(dimethylamino)ethyl 4-(octylamino)-2-chlorobenzoate]			100 ± 90 nM	220 ± 130 nM	
